# Entries after “also recorded” stand apart in the source; their conditions may differ.
# Key:
# [1] = test system: MWCL-1 cells; experiment: MTS viability assay, MWCL-1; format: cell-based, human; conditions: 72-h MTS assay
# Experimental: (§1) Twenty thousand cells/200 μl in quadruplicates were incubated with serially diluted b-AP15 (1-1000 nmol/l) in 96-well plates at 37° C. for 72 hours. MTS (3-(4,5-dimethylthiazol-2-yl)-5-(3-carboxymethoxyphenyl)-2-(4-sulfophenyl)-2H-tetrazolium) reagent (Molecular Probes, Eugene, Oreg.) was added at 40 μl/well and the plates were further incubated at 37° C. for 3 hours and the developed color was read at 490 nm using a BioTek synergy HT plate reader against blanks with no cells.
# [2] = test system: MWCL-1/BR; experiment: MTS viability assay, MWCL-1/BR; format: cell-based, human; conditions: 72-h MTS assay, MWCL-1B/BR
# Experimental: as §1
# [3] = molecular target: T1, proteasome b2 subunit (trypsin-like activity) (Homo sapiens, UniProt Q99436); experiment: Proteasomal activity assay, trypsin-like (LRR-AMC), WM cells; format: biochemical; conditions: 10 nM; BCWM.1 and BCWM.1/BR shown
# T1 construct: Cells were lysed at 4×10^6 cells/ml in proteasomal activity assay buffer; endogenous in cells; host or cells: BCWM.1 and BCWM.1/BR (lysates)
# T1 sequence (Q99436 44-277): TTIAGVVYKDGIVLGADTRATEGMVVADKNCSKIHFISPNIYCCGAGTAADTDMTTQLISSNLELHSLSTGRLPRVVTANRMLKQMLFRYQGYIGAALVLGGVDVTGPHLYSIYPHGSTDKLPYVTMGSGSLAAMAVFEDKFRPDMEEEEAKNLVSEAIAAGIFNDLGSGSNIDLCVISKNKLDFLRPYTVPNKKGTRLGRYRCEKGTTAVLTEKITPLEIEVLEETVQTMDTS
# Experimental: FIGS. 17A-17D are a series of graphs plotting the effects of bortezomib (10 nM), carfilzomib (10 nM) and b-AP15 (10 nM) on caspase-like and trypsin-like proteasomal activities, as assessed in three WT and three BR WM cell lines in vitro using the fluorogenic substrates LLE-AMC (caspase-like activity) and LRR-AMC (trypsin-like activity). Reactions were incubated at 37° C. for 1 hour and the fluorescence was measured at 360/460 and expressed as relative fluorescence units (RFU), using BioTek synergy HT plate reader. Data from two representative cell lines (BCWM.1 and its BR subclone) are shown.
# Cells were lysed at 4×10^6 cells/ml in proteasomal activity assay buffer [assay buffer; 25 mmol/1 HEPES buffer, pH7.5 containing 0.5 mmol/1 EDTA, 0.05% Nonidet P-40, 0.01% sodium dodecyl sulfate (SDS)] and immediately used in the assay. Enzyme reactions were performed in 96-well plates with 100 μl of final volume containing […] fluorogenic peptide substrates. The substrates used were LLVY-AMC for chymotrypsin like activity, LLE-AMC for caspase-like activity and LRR-AMC for trypsin-like activity. Reactions were incubated at 37° C. for 1 hour and fluorescence was measured at 360/460 using a BioTek synergy HT plate reader (BioTek, Winooski, Vt.).
# [4] = test system: WM cell lines (WT and BR); experiment: Annexin-V apoptosis assay, WM cell lines; format: cell-based, human; conditions: 0.64 μmol/l, 12 hours
# Experimental: FIGS. 12A-12D are a series of graphs and Western blots showing b-AP15 induction of tumor-specific apoptosis in WM cell lines and primary patient-derived WM cells. FIG. 12A is a graph plotting cell death as a percentage of control cell death for all available WM cell lines (n=6, WT and BR derivatives) after treatment with the indicated concentrations of b-AP15, followed by staining with annexin-V and propidium iodide and then flow cytometry to examine apoptosis. […] Each experiment was conducted a minimum of three times with control cells (no drug treatment) showing a viability ([…] and propidium iodide-negative population) of >85%. Following treatment, the percentage of cells affected by b-AP15 was calculated by normalizing data from treated cells relative to the control (untreated) cells. […]
# Apoptosis was measured using the Annexin V binding assay kit from BD Biosciences according to the manufacturer's instructions. […] Fluorescein isothiocycanate (FITC)-labelled Annexin V (5 μl) and propidium iodide (10μ were added to each sample and incubated in the dark for 15 minutes at room temperature. The cells were subsequently analyzed by flow cytometry using BD Accuri, the C6 flow cytometer and its software. Data from 10,000 events per sample were collected and analyzed.
# [5] = test system: BCWM.1 cells; experiment: Annexin-V apoptosis assay, BCWM.1; format: cell-based, human
# Experimental: FIG. 18 is a series of representative heat density plots showing Annexin-V staining in BCWM.1 and BCWM.1/BR±b-AP15 treatment, indicating about 46% cell death in BCWM.1 cells (top panels) and about 42% cell death in BCWM.1/BR cells (bottom panels).
# Apoptosis was measured using the Annexin V binding assay kit from BD Biosciences according to the manufacturer's instructions. Briefly, at the end of the treatment, cells were washed with PBS and 1×10^6 cells were re-suspended in 100 μl of binding buffer. Fluorescein isothiocycanate (FITC)-labelled Annexin V (5 μl) and propidium iodide (10μ were added to each sample and incubated in the dark for 15 minutes at room temperature. The cells were subsequently analyzed by flow cytometry using BD Accuri, the C6 flow cytometer and its software. Data from 10,000 events per sample were collected and analyzed.
# [6] = test system: WT and BR WM cells; experiment: Mitochondrial outer membrane permeability (TMRM), WM cell lines; format: cell-based, human
# Experimental: (§2) Cells were treated with different agents for 48 hours and assessed for MOMP using tetramethylrhodamine methyl ester [TMRM] (Life Technologies). TMRM was directly added to the cell cultures at 100 nmol/1 concentrations and incubated at 37° C. in the dark for 15 minutes. At the end of the incubation, cells were washed twice with cold PBS containing 2% FBS and analyzed. The cells were washed for fluorescence (FL2) and analyzed by BD Accuri, the C6 flow cytometer and its software. Data from at least 20,000 events per sample were collected and analyzed. TMRM-negative (%) cells were calculated to determine % MOMP.
# [7] = test system: BCWM.1 cells; experiment: Mitochondrial outer membrane permeability (TMRM), BCWM.1; format: cell-based, human
# Experimental: FIG. 19 is a pair of histograms showing MOMP in representative WM models±b-AP15 treatment (BCWM.1 and BCWM.1/BR cells; one WT with its respective BR subclone). Black histogram represents control. Lines represent a shift in MOMP.
# as §2
# [8] = test system: WM cells; experiment: Immunoblot analysis of WM cells; format: cell-based, human
# Experimental: Total protein extracts were made using radioimmunoprecipitation assay lysis buffer (50 mmol/1 Tris containing 150 mmol/1 NaCl, 0.1% SDS, 1% TritonX-100, 1% sodium deoxycholate, pH 7.2) with 0.2% protease and phosphatase inhibitor cocktail (Sigma, St. Louis, Mo.) on ice for 40 minutes, vortexing for 5 seconds every 10 minutes. Following centrifugation at 18,400 g for 20 minutes, the supernatant was collected and used for Western blot analyses. Protein content in the extracts was measured by bicinchoninic acid protein assay reagent. Aliquots of 20 μg of total protein were boiled in Laemmli sample buffer, loaded onto 10% SDS-PAGE gels, and transferred onto a nitrocellulose membrane. Membranes were blocked for 1 hour in TBS/Tween 20 [TTBS] containing 1% nonfat dried milk and 1% BSA. Incubation with primary antibodies was done overnight at 4° C., followed by washing 3× with TTBS and incubation for 1 hour with HRP-conjugated secondary antibody. The blots were developed using chemiluminescence (Thermo Scientific, Rockford, Ill.).
compound,measurement,setting,value
C=CC(=O)N1C/C(=C\c2ccc([N+](=O)[O-])cc2)C(=O)/C(=C/c2ccc([N+](=O)[O-])cc2)C1 [b-AP15],IC50,[1],7 nM
same,IC50,[2],3 nM
same,trypsin-like proteasomal activity,[3],no change in trypsin-like activity
same,WM cells experiencing apoptosis,[4],approximately 50%
same,cell death (Annexin-V staining),[5],about 46%
same,MOMP,[6],significantly induced
same,increase in MOMP,[7],57%
same,BCL2 protein,[8],No change
same,p-EIF2a expression,[8],did not appear to change
same,phosphorylated MAPK14 (p38) protein,[8]; 6-hour treatment,significant increase
same,RELA nuclear protein levels,"[8]; 6 hours, BCWM.1 shown",marked reduction; also recorded: markedly reduced
same,MYC total and nuclear expression,[8]; BCWM.1,reduced total and nuclear expression
same,EIF2AK3 (PERK) levels,[8]; BR models,decreased EIF2AK3 levels
same,USP14 and UCHL5 protein expression,"[8]; WM cell lines (WT and BR), 0.5 and 1 μmol/l",no observable shift
same,PARP1 cleavage,[8]; WM cell lines and primary WM tumor cells,confirming execution of apoptosis
same,TP53 protein,[8]; WT and BR WM cells,marginal increase
same,HSPA1A protein,[8]; all cell lines,further induced
same,"ERN1a, XBP1u and XBP1s protein",[8]; all models tested,significantly induced
same,total ubiquitinated cellular protein content,[8]; dose-dependent,increasing amounts of high molecular weight polyubiquitinated conjugates
same,USP14 and UCHL5 protein expression,"[8]; primary CD19+/CD138+ WM cells, 0.5 μmol/l",did not change
same,p-MAPK3/MAPK1 (ERK1/2),[8]; wild type cell lines,increase

# From US20170128518A1, “METHODS AND MATERIALS FOR IDENTIFYING AND TREATING MAMMALS RESISTANT TO PROTEASOME INHIBITOR TREATMENTS” (Mayo Foundation for Medical Education and Research, priority 2014, published 2017)
